Source: patent publication US9090593B2, “Bicyclic compounds as Pim inhibitors” (AMGEN INC., priority 2010, dated 2015)
Like-named read-outs stand apart in the source and are kept apart here.

Tests used:
[1] = target: T1, Pim-1 stably transfected into the U2OS human osteogenic sarcoma line (Homo sapiens, UniProt P11309); experiment: Pim cell assay, phospho-BAD normalized against total BAD, U2OS stably transfected with Pim-1; type: cell-based; details: read-out: Pim1_Cell_IC50
T1 construct: expressed in transfected cells; host or cells: U2OS human osteogenic sarcoma line
T1 sequence (P11309 whole entry): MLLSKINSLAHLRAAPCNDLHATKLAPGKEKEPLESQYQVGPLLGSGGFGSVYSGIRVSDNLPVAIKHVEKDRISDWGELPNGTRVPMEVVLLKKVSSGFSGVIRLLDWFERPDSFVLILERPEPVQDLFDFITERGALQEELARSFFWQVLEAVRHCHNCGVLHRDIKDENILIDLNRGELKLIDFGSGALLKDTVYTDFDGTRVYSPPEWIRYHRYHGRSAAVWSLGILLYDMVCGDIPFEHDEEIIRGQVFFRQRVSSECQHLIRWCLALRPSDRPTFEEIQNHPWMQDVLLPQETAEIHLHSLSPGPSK
Procedure, shortened: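 Read-out is phospho-BAD relative to total BAD, by MSD electrochemiluminescence on lysates, expressed as % phosphoprotein = (2×phospho)/(phospho+total)×100. Engineered U2OS lines carrying stably transfected Pim-1 or Pim-2 received 10-point compound dilutions at 0.3% final DMSO after overnight culture at 37 °C; DMSO-only wells served as high control.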

[2] = target: T2, full length recombinant Pim-3 protein (Homo sapiens, UniProt Q86V86); experiment: Pim-3 enzyme assay (HTRF, phosphorylation of biotinylated-BAD (S112) peptide); type: biochemical; details: read-out: Pim3 IC50
T2 construct: by full length recombinant Pim-1, Pim-2, or Pim-3 protein; purchased Millipore (UK)
From the text: Pim-3 was purchased from Millipore (UK).
The phosphorylation of biotinylated-BAD (S112) peptide by full length recombinant Pim-1, Pim-2, or Pim-3 protein was detected with streptavidin:Allophycocyanin (APC) conjugate and a europium (Eu) labeled antibody directed against phosphorylated-BAD (S112). […] The fluorescence is directly proportional to the amount of phosphorylated BAD peptide present in the reaction.
A reference compound was included on each assay plate in order to validate that plate; on one plate of every assay run, two additional reference compounds were included.
The final buffer conditions were as follows: 60 mM Hepes, pH 7.0, 0.05% BSA, 2 mM DTT. […] The reaction was stopped by the addition of 3 mM EDTA, and fluorescence was measured by an HTRF® Rubystar microplate reader. For each plate, percent of control (POC) values were calculated for each well. Values for the IC50 IP were estimated using a standard 4-parameter logistic model.

[3] = target: T3, full length recombinant Pim-2 protein (Homo sapiens, UniProt Q9P1W9); experiment: Pim-2 enzyme assay (HTRF, phosphorylation of biotinylated-BAD (S112) peptide); type: biochemical; details: enzyme assay, Pim-2; read-out: Pim2_IC50
T3 construct: by full length recombinant Pim-1, Pim-2, or Pim-3 protein; hexahistidine tag followed by a thrombin cleavage site (N); made in house; host or cells: Sf9 (baculovirus) or E. coli (pET28)
T3 sequence (Q9P1W9 whole entry): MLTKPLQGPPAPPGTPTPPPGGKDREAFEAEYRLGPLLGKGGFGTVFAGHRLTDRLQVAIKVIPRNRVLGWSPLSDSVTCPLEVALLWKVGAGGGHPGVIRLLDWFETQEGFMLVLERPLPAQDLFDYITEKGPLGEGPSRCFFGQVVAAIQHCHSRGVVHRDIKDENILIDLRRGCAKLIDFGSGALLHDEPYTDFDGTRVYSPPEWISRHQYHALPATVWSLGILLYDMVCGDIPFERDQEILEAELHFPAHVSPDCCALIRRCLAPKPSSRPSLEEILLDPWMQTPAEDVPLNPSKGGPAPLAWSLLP
Procedure, shortened: (§1)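 Each full-length human Pim enzyme phosphorylates a biotinylated BAD (S112) peptide, and the product is sensed by Eu anti-phospho-BAD antibody with streptavidin-APC after quenching with 3 mM EDTA. Conditions: 60 mM Hepes pH 7.0, 0.05% BSA, 2 mM DTT.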

[4] = target: T4, full length recombinant Pim-1 protein (Homo sapiens, UniProt P11309); experiment: Pim-1 enzyme assay (HTRF, phosphorylation of biotinylated-BAD (S112) peptide); type: biochemical; details: enzyme assay, Pim-1; read-out: Pim_1_IC50
T4 construct: by full length recombinant Pim-1, Pim-2, or Pim-3 protein; hexahistidine tag followed by a thrombin cleavage site (N); made in house; host or cells: Sf9 (baculovirus) or E. coli (pET28)
T4 sequence (P11309 whole entry): as the sequence (P11309 whole entry) above
Procedure, shortened: as §1

[5] = U2OS cells stably transfected with Pim-1, phospho-BAD, high dose […]

IC50 [1, 5] | IC50 [2] | IC50 [3] | IC50 [4] | IC50 [1] | SMILES
2630 nM | 61 nM | 769 nM | 28 nM |  | COc1nc2ccccc2cc1-c1ccc2[nH]nc(-c3cncc(N4CCC(N)CC4)n3)c2c1 [Example 2, 1-(6-(5-(2-methoxyquinolin-3-yl)-1H-indazol-3-yl)pyrazin-2-yl)piperidin-4-amine]
 | 67 nM | 586 nM | 19 nM | 907 nM | NC1CCN(c2cncc(-c3c[nH]c4ccc(-c5c(F)cccc5F)nc34)c2)CC1 [Example 32, 1-(5-(5-(2,6-difluorophenyl)-1H-pyrrolo[3,2-b]pyridin-3-yl)pyridin-3-yl)piperidin-4-amine]
3660 nM | 4 nM | 183 nM | 7 nM |  | NC1CCN(c2cncc(-c3n[nH]c4ccc(-c5cc6ccccc6nc5O)cc34)n2)CC1 [Example 54, 3-(3-(6-(4-amino-1-piperidinyl)-2-pyrazinyl)-1H-indazol-5-yl)-2-quinolinol]
868 nM | 49 nM | 303 nM | 28 nM |  | NC1CCN(c2cncc(-c3n[nH]c4ccc(N5CCOCC5)cc34)n2)CC1 [Example 89, 1-(6-(5-(4-morpholinyl)-1H-indazol-3-yl)-2-pyrazinyl)-4-piperidinamine]
484 nM | 5 nM | 43 nM | 2 nM |  | Nc1cc(-c2ccc3[nH]nc(-c4cncc(N5CCC(N)CC5)n4)c3c2)ccc1N1CCOCC1 [Example 105, 1-(6-(5-(3-amino-4-(4-morpholinyl)phenyl)-1H-indazol-3-yl)-2-pyrazinyl)-4-piperidinamine]
866 nM | 6 nM | 153 nM | 9 nM |  | CN(C)c1cccc(-c2ccc3[nH]nc(-c4cncc(N5CCC(N)CC5)n4)c3c2)c1 [Example 108, 1-(6-(5-(3-(dimethylamino)phenyl)-1H-indazol-3-yl)-2-pyrazinyl)-4-piperidinamine]
776 nM | 23 nM | 151 nM | 8 nM |  | NC1CCN(c2cncc(-c3n[nH]c4ccc(-c5ccnc6cc(F)ccc56)cc34)n2)CC1 [Example 110, 1-(6-(5-(7-fluoro-4-quinolinyl)-1H-indazol-3-yl)-2-pyrazinyl)-4-piperidinamine]
> 15800 nM | 33 nM | 549 nM | 17 nM |  | Nc1nccc(N2CCc3ccc(-c4ccc5[nH]nc(-c6cncc(N7CCC(N)CC7)n6)c5c4)cc32)n1 [Example 113, 4-(6-(3-(6-(4-amino-1-piperidinyl)-2-pyrazinyl)-1H-indazol-5-yl)-2,3-dihydro-1H-indol-1-yl)-2-pyrimidinamine]
402 nM | 11 nM | 58 nM | 11 nM |  | Fc1cccnc1-c1ccc2[nH]nc(-c3cncc(O[C@@H]4CCCNC4)n3)c2c1 [Example 124, 5-(3-fluoro-2-pyridinyl)-3-(6-((3R)-3-piperidinyloxy)-2-pyrazinyl)-1H-indazole]
316 nM | 14 nM | 37 nM | 7 nM |  | c1ccc(-c2ccc3[nH]nc(-c4cncc(O[C@@H]5CCCNC5)n4)c3c2)cc1 [Example 134, 5-phenyl-3-(6-((3R)-3-piperidinyloxy)-2-pyrazinyl)-1H-indazole]
585 nM | 6 nM | 63 nM | 8 nM |  | COc1cccc(-c2ccc3[nH]nc(-c4cncc(O[C@@H]5CCCNC5)n4)c3c2)n1 [Example 137, 5-(6-methoxy-2-pyridinyl)-3-(6((3R)-3-piperidinyloxy)-2-pyrazinyl)-1H-indazole]
108 nM | 12 nM | 24 nM | 5 nM |  | COc1cc(-c2ccc3[nH]nc(-c4cncc(O[C@@H]5CCCNC5)n4)c3c2)ccn1 [Example 160, 5-(2-methoxy-4-pyridinyl)-3-(6-((3R)-3-piperidinyloxy)-2-pyrazinyl)-1H-indazole]
 | 347 nM | > 3000 nM | 166 nM |  | CC(C)NC(=O)c1ccc2[nH]cc(-c3cncc(N4CCC(N)CC4)n3)c2c1 [Example 239, 3-(6-(4-aminopiperidin-1-yl)pyrazin-2-yl)-N-isopropyl-1H-indole-5-carboxamide]

Further lines, the compound ahead of its results:

SMILES | IC50 [1, 5] | IC50 [2] | IC50 [3] | IC50 [4] | IC50 [1]
Fc1cccc(F)c1-c1ccc2[nH]nc(-c3cncc(O[C@@H]4CNCC[C@H]4F)n3)c2c1 (single isomer, unassigned) [Example 19, 5-(2,6-difluorophenyl)-3-(6-(trans-4-fluoropiperidin-3-yloxy)pyrazin-2-yl)-1H-indazole] | 254 nM | 7 nM | 28 nM | 5 nM | 
Fc1ncc(Cl)cc1-c1ccc2[nH]nc(-c3cncc(O[C@@H]4CCCNC4)n3)c2c1 [Example 117, 5-(5-chloro-2-fluoro-3-pyridinyl)-3-(6-((3R)-3-piperidinyloxy)-2-pyrazinyl)-1H-indazole] | 761 nM | 5 nM | 66 nM | 18 nM | 
CC(C)Oc1cncc(-c2ccc3[nH]nc(-c4cncc(O[C@@H]5CCCNC5)n4)c3c2)c1 [Example 120, 5-(5-(1-methylethoxy)-3-pyridinyl)-3-(6-((3R)-3-piperidinyloxy)-2-pyrazinyl)-1H-indazole] | 145 nM | 8 nM | 98 nM | 3 nM | 
CC(C)Oc1cccc(-c2ccc3[nH]nc(-c4cncc(O[C@@H]5CCCNC5)n4)c3c2)c1 [Example 146, 5-(3-(1-methylethoxy)phenyl)-3-(6-((3R)-3-piperidinyloxy)-2-pyrazinyl)-1H-indazole] | 996 nM | 31 nM | 84 nM | 7 nM | 
C(=C\C1CC1)/c1ccc2[nH]nc(-c3cncc(O[C@@H]4CCCNC4)n3)c2c1 [Example 147, 5-((E)-2-cyclopropylethenyl)-3-(6-((3R)-3-piperidinyloxy)-2-pyrazinyl)-1H-indazole] | 724 nM | 13 nM | 105 nM | 7 nM | 
C1=C(c2ccc3[nH]nc(-c4cncc(O[C@@H]5CCCNC5)n4)c3c2)CCOC1 [Example 148, 5-(3,6-dihydro-2H-pyran-4-yl)-3-(6-((3R)-3-piperidinyloxy)-2-pyrazinyl)-1H-indazole] | 314 nM | 7 nM | 25 nM | 6 nM | 
c1cnnc(-c2ccc3[nH]nc(-c4cncc(O[C@@H]5CCCNC5)n4)c3c2)c1 [Example 149, 3-(6-((3R)-3-piperidinyloxy)-2-pyrazinyl)-5-(3-pyridazinyl)-1H-indazole] | 292 nM | 7 nM | 48 nM | 6 nM | 
COc1nccc(-c2ccc3[nH]nc(-c4cncc(O[C@@H]5CCCNC5)n4)c3c2)n1 [Example 152, 5-(2-methoxy-4-pyrimidinyl)-3-(6-((3R)-3-piperidinyloxy)-2-pyrazinyl)-1H-indazole] | 1060 nM | 7 nM | 36 nM | 7 nM | 
CC(C)Oc1nccc(-c2ccc3[nH]nc(-c4cncc(O[C@@H]5CCCNC5)n4)c3c2)n1 [Example 153, 5-(2-(1-methylethoxy)-4-pyrimidinyl)-3-(6-((3R)-3-piperidinyloxy)-2-pyrazinyl)-1H-indazole] | 174 nM | 27 nM | 165 nM | 12 nM | 
C1=C(c2ccc3[nH]nc(-c4cncc(O[C@@H]5CCCNC5)n4)c3c2)COCC1 [Example 154, 5-(5,6-dihydro-2H-pyran-3-yl)-3-(6-((3R)-3-piperidinyloxy)-2-pyrazinyl)-1H-indazole] | 772 nM | 16 nM | 71 nM | 15 nM | 
O=C(NC1CC1)c1ccnc(-c2ccc3[nH]nc(-c4cncc(O[C@@H]5CCCNC5)n4)c3c2)c1 [Example 157, N-cyclopropyl-2-(3-(6-((3R)-3-piperidinyloxy)-2-pyrazinyl)-1H-indazol-5-yl)-4-pyridinecarboxamide] | 1740 nM | 12 nM | 32 nM | 12 nM | 
O=C(NC1CC1)c1cncc(-c2ccc3[nH]nc(-c4cncc(O[C@@H]5CCCNC5)n4)c3c2)c1 [Example 159, N-cyclopropyl-5-(3-(6-((3R)-3-piperidinyloxy)-2-pyrazinyl)-1H-indazol-5-yl)-3-pyridinecarboxamide] | 750 nM | 1 nM | 71 nM | 2 nM | 
